Values of other authors in patent US20100076037A1, “Methods of Treating Neuropathic Pain with Agonists of PPAR-gamma” (priority 2006, published 2010).
Like-named read-outs stand apart in the source and are kept apart here.

Tests used:
PPARalpha = biological target: T1, PPARalpha (Homo sapiens, UniProt Q07869); conditions: first value of the pair given as α/γ; read-out: EC50 for PPARalpha agonism; cited from earlier work
T1 sequence (Q07869 1-468): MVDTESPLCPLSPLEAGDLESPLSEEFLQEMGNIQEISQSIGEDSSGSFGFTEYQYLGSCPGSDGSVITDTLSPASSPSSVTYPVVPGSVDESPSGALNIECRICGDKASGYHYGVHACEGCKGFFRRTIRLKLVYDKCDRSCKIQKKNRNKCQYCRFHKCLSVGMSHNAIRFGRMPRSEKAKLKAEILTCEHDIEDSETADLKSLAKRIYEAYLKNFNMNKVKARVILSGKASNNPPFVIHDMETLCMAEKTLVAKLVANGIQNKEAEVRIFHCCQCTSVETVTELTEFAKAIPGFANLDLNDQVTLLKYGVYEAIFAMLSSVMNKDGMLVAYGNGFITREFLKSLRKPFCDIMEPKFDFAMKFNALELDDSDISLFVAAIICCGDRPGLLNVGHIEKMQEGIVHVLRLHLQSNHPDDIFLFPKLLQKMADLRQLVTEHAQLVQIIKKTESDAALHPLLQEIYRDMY

PPARγ = PPARγ (Homo sapiens, UniProt P37231); conditions: second value of the pair printed as α/γ; read-out: EC50 for PPAR γ agonism; cited from earlier work
Sequence of PPARγ (P37231 whole entry, species assumed): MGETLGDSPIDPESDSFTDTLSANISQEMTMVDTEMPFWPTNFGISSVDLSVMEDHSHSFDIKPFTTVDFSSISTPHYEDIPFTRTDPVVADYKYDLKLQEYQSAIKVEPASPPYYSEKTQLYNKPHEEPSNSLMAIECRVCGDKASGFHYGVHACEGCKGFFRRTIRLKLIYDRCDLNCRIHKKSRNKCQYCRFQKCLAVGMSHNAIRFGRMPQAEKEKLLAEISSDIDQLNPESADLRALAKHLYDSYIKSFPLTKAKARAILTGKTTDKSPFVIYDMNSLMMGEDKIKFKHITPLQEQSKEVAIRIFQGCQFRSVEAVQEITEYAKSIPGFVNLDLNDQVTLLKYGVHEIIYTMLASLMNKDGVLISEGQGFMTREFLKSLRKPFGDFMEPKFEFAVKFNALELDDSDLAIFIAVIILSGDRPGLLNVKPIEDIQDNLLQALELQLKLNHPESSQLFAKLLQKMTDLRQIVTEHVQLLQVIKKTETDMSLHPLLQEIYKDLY

db/db mice = conditions: cited from earlier work
ob/ob mice [1] = conditions: cited from earlier work
[2] = cited from earlier work
[3] = presence and absence of insulin; cited from earlier work
PPARalpha target protein = conditions: HepG2; cited from earlier work
human macrophages = conditions: 5 microM; cells exposed to high fatty acids and TGs; cited from earlier work
[4] = system: arterial smooth muscle cells (SMCs); conditions: 5 or 10 microM; cited from earlier work
cytochrome P450 (CYP)4A = conditions: 0.13 microg/kg; cited from earlier work
obese Zucker rats = conditions: cited from earlier work
[5] = system: human apoB/CETP double-transgenic mouse; conditions: tesaglitazar 1 microM/kg/day for 2 weeks; cited from earlier work
high-fat-fed Wistar rats = conditions: cited from earlier work
ob/ob mice [6] = conditions: cited from earlier work; remark: listed apart in the source
[7] = system: apoE*3 Leiden transgenic mice; conditions: cited from earlier work
P-glycoprotein = biological target: T2, P-glycoprotein (Homo sapiens, UniProt P08183); conditions: cited from earlier work
T2 construct: host or cells: Caco2 and MDCK-MDR1 monolayers (tie to the P-gp statement is grammatically loose)
T2 sequence (P08183 whole entry): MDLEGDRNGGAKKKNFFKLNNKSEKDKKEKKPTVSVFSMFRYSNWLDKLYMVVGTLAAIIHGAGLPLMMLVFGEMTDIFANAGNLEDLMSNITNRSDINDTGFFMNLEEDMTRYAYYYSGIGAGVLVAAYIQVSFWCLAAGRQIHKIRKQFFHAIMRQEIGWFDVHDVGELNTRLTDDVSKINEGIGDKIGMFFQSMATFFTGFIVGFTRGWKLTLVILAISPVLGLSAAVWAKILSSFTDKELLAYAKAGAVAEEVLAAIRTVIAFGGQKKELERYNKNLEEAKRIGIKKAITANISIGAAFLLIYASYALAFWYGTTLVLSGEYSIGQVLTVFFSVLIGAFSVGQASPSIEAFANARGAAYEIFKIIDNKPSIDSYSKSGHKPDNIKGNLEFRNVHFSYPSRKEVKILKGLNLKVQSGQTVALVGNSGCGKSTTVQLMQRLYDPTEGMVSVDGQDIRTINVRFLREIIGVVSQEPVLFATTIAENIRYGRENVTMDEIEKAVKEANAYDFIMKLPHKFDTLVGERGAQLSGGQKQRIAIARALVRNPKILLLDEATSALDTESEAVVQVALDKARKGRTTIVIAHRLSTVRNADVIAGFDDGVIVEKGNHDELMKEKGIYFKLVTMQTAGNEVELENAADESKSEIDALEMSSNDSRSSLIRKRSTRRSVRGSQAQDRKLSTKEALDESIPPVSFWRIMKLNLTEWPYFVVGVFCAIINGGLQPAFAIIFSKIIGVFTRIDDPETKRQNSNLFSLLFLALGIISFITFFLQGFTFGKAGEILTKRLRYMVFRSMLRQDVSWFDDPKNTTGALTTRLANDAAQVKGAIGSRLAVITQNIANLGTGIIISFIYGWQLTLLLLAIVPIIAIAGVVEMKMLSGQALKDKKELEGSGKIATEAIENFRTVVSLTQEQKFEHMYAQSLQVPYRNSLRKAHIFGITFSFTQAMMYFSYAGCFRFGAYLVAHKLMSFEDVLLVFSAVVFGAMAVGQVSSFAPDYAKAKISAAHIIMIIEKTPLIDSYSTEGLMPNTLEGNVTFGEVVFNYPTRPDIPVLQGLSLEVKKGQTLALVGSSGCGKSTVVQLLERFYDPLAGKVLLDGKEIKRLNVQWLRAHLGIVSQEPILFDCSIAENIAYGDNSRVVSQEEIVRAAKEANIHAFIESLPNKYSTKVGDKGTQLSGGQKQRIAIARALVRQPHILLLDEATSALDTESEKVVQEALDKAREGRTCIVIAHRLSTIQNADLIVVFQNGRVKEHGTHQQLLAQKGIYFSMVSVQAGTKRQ

[8] = system: recombinant human CYPs (CYP1A2, CYP2A6, CYP2C8, CYP2C9, CYP2C19, CYP2D6 and CYP3A4); conditions: 0.09 to 200 microM; cited from earlier work
[9] = cited from earlier work; remark: listed apart in the source
[10] = 1 mg, cited from earlier work
[11] = healthy males; cited from earlier work
type 2 diabetic patients = conditions: cited from earlier work; for decrease of mean fasting plasma glucose, placebo-corrected: 12 weeks
[12] = system: non-diabetic but insulin-resistant patients; conditions: cited from earlier work; for reduction of prevalence of metabolic syndrome: NCEP ATPIII criteria
diabetic patients = conditions: human, in vivo; cited from earlier work
mPPARalpha = mPPARalpha (Mus musculus, UniProt P23204); conditions: read-out: EC50 reporter gene assay, U2 OS cells; cited from earlier work
Sequence of mPPARalpha (P23204 whole entry): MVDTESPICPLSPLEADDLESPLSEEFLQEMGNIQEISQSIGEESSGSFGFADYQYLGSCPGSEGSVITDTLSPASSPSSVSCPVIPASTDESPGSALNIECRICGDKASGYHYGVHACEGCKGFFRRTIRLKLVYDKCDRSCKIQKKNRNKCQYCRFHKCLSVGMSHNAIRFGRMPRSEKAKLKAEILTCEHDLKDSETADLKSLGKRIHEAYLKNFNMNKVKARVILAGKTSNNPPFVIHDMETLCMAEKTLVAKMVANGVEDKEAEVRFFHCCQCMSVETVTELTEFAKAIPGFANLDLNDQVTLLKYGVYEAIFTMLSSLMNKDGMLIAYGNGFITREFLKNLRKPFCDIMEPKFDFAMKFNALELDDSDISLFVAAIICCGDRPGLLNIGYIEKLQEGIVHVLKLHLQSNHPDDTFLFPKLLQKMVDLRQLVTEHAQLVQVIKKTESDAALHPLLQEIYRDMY

[13] = system: multidrug resistance protein 2; conditions: cited from earlier work
[14] = dose for 25% reduction in fasting plasma glucose, insulin and serum TG

O=C1NC(=O)C(Cc2ccc3cc(OCc4ccccc4F)ccc3c2)S1 (stereo not shown) [MCC-555]
EC50 (PPARalpha): 3 µM | EC50 (PPARγ): 0.1 µM

Cc1oc(-c2ccccc2)nc1CCOc1ccc(CC2SC(=O)NC2=O)c2sccc12 (stereo not shown) [edaglitazone]
lowering of free fatty acid levels (db/db mice; 1 mg/kg): 16% | reduction in serum triglyceride levels (db/db mice; 1 mg/kg): 14% | lowering of free fatty acid levels (db/db mice; 10 mg/kg): 70% | reduction in serum triglyceride levels (db/db mice; 10-mg·kg dose): 70% | lowering of non-starved blood glucose (db/db mice; 25-mg dose, 12 days): 52% | hypoglycemia (db/db mice; chronic treatment with 100 mg/kg): did not result in hypoglycemia | reduction of AUC(glucose) (ob/ob mice [1]; 1 mg/kg, 14 days): 44% | reduction in non-starved blood glucose concentration (ob/ob mice [1]; 0.25 to 10 mg/kg, 12 days): 29% | serum insulin levels (ob/ob mice [1]; all doses): dose-dependently decreased | reduction in non-starved blood glucose concentration (ob/ob mice [1]; higher doses): 45% | accumulation ([2]; once-daily dosing over 6 weeks): did not accumulate | tolerability ([2]; single ascending dose): very well tolerated | time to plasma peak levels after dosing ([2]; single doses 1-160 mg, healthy males): 2 to 4 h | rate of glucose oxidation [3]: increased

CCO[C@@H](Cc1ccc(OCCc2ccc(OS(C)(=O)=O)cc2)cc1)C(=O)O [tesaglitazar, (S)-2-ethoxy-3-[4-(2-{4-methanesulfonyloxyphenyl}ethoxy)phenyl]propanoic acid]
potency relative to bezafibrate (PPARalpha target protein): approximately 10 fold | cholesterol efflux, % of the control level (human macrophages): 156% | decrease of affinity of human LDL for unbound GAGs [4]: 3- to 4 fold | linoleate-induced production of LDL-binding GAGs [4]: abolished | upregulation of CYP4A relative to controls (cytochrome P450 (CYP)4A): 15 fold | free fatty acid utilization in adipose tissue, skeletal muscle, liver and heart (obese Zucker rats; 3 micromol/kg/day for 3 weeks, insulin level-clamped): reduced | glucose utilization in muscle and fat (obese Zucker rats; 3 micromol/kg/day for 3 weeks): increased | measures of whole-body insulin sensitivity (obese Zucker rats; 3 micromol/kg/day orally, 3 or 4 weeks): consistently improved or normalized | normalization of total insulin (obese Zucker rats; basal conditions, toward lean control): 76% | normalization of C-peptide (obese Zucker rats; basal conditions): 61% | normalization of TGs (obese Zucker rats; basal conditions): 67% | normalization of free fatty acids (obese Zucker rats; basal conditions): 15% | glucose infusion rate higher than required in lean controls (obese Zucker rats; clamp conditions): 13% | increase of rate of glucose infusion vs untreated rats (obese Zucker rats; clamp conditions): 7.6 fold | normalization of C-peptide (obese Zucker rats; clamp conditions): 63% | normalization of TGs (obese Zucker rats; clamp conditions): 72% | normalization of free fatty acids (obese Zucker rats; clamp conditions): 70% | normalization of total insulin (obese Zucker rats; clamp conditions): 82% | VLDL apolipoprotein (apo)CIII content (obese Zucker rats; fasted obese Zucker rats): reduced | increase of plasma TG clearance (obese Zucker rats; fasted obese Zucker rats): 490% | reduction of rate of hepatic TG production (obese Zucker rats; fasted obese Zucker rats): 47% | normalization of postprandial excursion in plasma glucose (obese Zucker rats; glucose/TG (1.7/2.0 g/kg) test meal): 80% | normalization of postprandial excursion in TGs (obese Zucker rats; glucose/TG test meal): 92% | normalization of postprandial excursion in free fatty acids (obese Zucker rats; glucose/TG test meal): 75% | normalization of postprandial excursion in insulin (obese Zucker rats; glucose/TG test meal): 85% | plasma TGs, apoB100 and plasma CETP activity [5]: reduced | basal TG levels (high-fat-fed Wistar rats; 1 micromol/kg/day for 1 week): reduced | increase of glucose infusion rate during clamping (high-fat-fed Wistar rats; 1 micromol/kg/day for 1 week): 29% | reduction of basal plasma insulin levels (high-fat-fed Wistar rats; 1 micromol/kg/day for 1 week): 36% | increase of uptake of non-esterified fatty acids in white adipose tissue (high-fat-fed Wistar rats; 1 micromol/kg/day for 3 weeks, basal conditions): 52% | hyperglycemia (ob/ob mice [6]; 1 micromol/kg/day for 1 week): normalized | potency relative to pioglitazone (ob/ob mice [6]; [14]): 250 fold | potency relative to rosiglitazone (ob/ob mice [6]; [14]): 7 fold | reduction of plasma cholesterol levels ([7]; 0.5 microg/kg of diet, low- or high-fat diets): approximately 21.5% | reduction of TG levels ([7]; 0.5 microg/kg of diet): approximately 40% | reduction of cross-sectional area of atheromic lesions in the aortic root ([7]; high-fat fed, 28 weeks): 92% | reduction of cross-sectional area of atheromic lesions in the aortic root ([7]; low-fat fed, 16 weeks): 65% | substrate of P-glycoprotein (P-glycoprotein): not substrates of P-glycoprotein | effect on activity of CYP drug metabolizing enzymes [8]: no effect | AUC ([9]; 1 mg intravenous): 16.2 micromolxh/l | AUC ([9]; 1 mg oral): 16.1 micromolxh/l | adverse events ([9]; 1 mg po or iv, healthy volunteers): no serious adverse events | oral bioavailability ([9]; 1 mg): ~100% | clearance (Cl) ([9]; in vivo): 0.16 L/h | elimination half-life ([9]; in vivo): ~45 h | protein-bound ([9]; in vivo): 99.9% | volume of distribution at steady state (Vdss) ([9]; in vivo): 9.1 L | Cmax ([9]; single 1-mg oral dose): 610 nM | median Tmax ([9]; single 1-mg oral dose): ~0.5 h | Tmax ([10]; fasted state): 1 h | Tmax ([10]; fed state): 2.5 h | pharmacokinetic interactions with glibenclamide or metformin [11]: No pharmacokinetic interactions | decrease of mean fasting plasma glucose, placebo-corrected (type 2 diabetic patients; 0.1 mg once daily): 8.9 mg/dL | decrease of mean fasting plasma glucose, placebo-corrected (type 2 diabetic patients; 0.5 mg): 30.3 mg/dL | decrease of mean fasting plasma glucose, placebo-corrected (type 2 diabetic patients; 1.0 mg): 41.1 mg/dL | greatest increase in serum HDL-cholesterol (type 2 diabetic patients; 1 mg): 15.0% | decrease of mean fasting plasma glucose, placebo-corrected (type 2 diabetic patients; 2.0 mg): 55.0 mg/dL | decrease of mean fasting plasma glucose, placebo-corrected (type 2 diabetic patients; 3.0 mg): 60.9 mg/dL | greatest reduction of LDL-cholesterol (type 2 diabetic patients; 3 mg): 17.3% | greatest reduction of VLDL-cholesterol (type 2 diabetic patients; 3 mg): 52.5% | maximum reduction in free fatty acids (type 2 diabetic patients; 2-mg dose): 36.7% | maximum reduction in serum TGs (type 2 diabetic patients; 2-mg dose): 41.0% | mean increase in serum creatinine ([12]; 0.1 mg): 1 µmol/L | patients with adverse events ([12]; 0.1 mg): 65% | reduction in mean hemoglobin level ([12]; 0.1 mg): 0.16 mmol/L | patients with adverse events ([12]; 0.25 mg): 51% | reduction of prevalence of metabolic syndrome ([12]; 0.5 mg): 49% | fall in prevalence of impaired fasting glucose ([12]; 0.5 mg): 23% | patients with adverse events ([12]; 0.5 mg): 67% | mean reduction in fasting serum TGs, placebo-corrected ([12]; 1 mg, 12 weeks): 37% | reduction of prevalence of metabolic syndrome ([12]; 1.0 mg): 45% | reduction of AUC for plasma free fatty acids ([12]; 1 mg, after lipid-rich meal): 29% | reduction of AUC for plasma insulin ([12]; 1 mg, after lipid-rich meal): 31% | reduction of AUC for serum TGs ([12]; 1 mg, after lipid-rich meal): 41% | reduction of AUC for serum glycerol ([12]; 1 mg, after lipid-rich meal): 34% | reduction of plasma glucose level at 2 h ([12]; 1 mg, after lipid-rich meal): 27% | increase in serum HDL-cholesterol ([12]; 1 mg): 16% | mean reduction in fasting insulin ([12]; 1 mg): 35% | mean reduction in non-HDL-cholesterol ([12]; 1 mg): 15% | mean reduction in non-esterified fatty acids ([12]; 1 mg): 40% | mean reduction in plasma glucose concentration ([12]; 1 mg): 0.47 mmol/L | reduction in mean hemoglobin level ([12]; 1 mg): 0.55 mmol/L | fall in prevalence of impaired fasting glucose ([12]; 1.0 mg): 59% | mean increase in serum creatinine ([12]; 1.0 mg): 8 µmol/L | patients with adverse events ([12]; 1.0 mg): 60% | increase in weight ([12]; 0.5 and 1 mg, 12 weeks): approximately 1 kg | increase of ApoA-1 ([12]; 1-mg dose): 4% | reduction of ApoB ([12]; 1-mg dose): 12% | reduction of ApoB/ApoA-1 ratio ([12]; 1-mg dose): 16% | reduction of ApoCIII ([12]; 1-mg dose): 25% | rates of edema (diabetic patients): 4.2 to 6.8% | EC50 (mPPARalpha): 32 µM | transport in Caco2 and MDCK-MDR1 monolayers [13]: apparently transported by multidrug resistance protein 2
